Source: US6770597B2, “Benzohydrazide derivatives as herbicides and desiccant compositions containing them” (Ishihara Sangyo Kaisha, Ltd., priority 2002, dated 2004)

What was measured:
Type in all cases: in vivo
[1] = system: barnyardgrass (Echinochloa crus-galli, ECHCG); test: Greenhouse herbicide screen, post-emerge application, phytotoxicity rating; conditions: POST emergent, 14 days after application, scale 0-100
In short: (§1)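 Scoring at 14 days used a 0–100 scale, 100 being all plants dead, for weed control and crop injury alike. Rates ranged from 15 to 1000 g ai/ha, applied in acetone at 187 l/ha by track sprayer. Post-emerge treatment hit 2–3 leaf plants; pre-emerge treatment hit soil seeded one day earlier.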

[2] = system: cocklebur (Xanthium strumarium, XANST); test: as above; conditions: POST emergent, 14 days after application, scale 0-100
In short: as §1

[3] = system: common ragweed (Ambrosia artemisiifolia L., AMBEL); test: as above; conditions: POST emergent, 14 days after application, scale 0-100
In short: as §1

[4] = system: green foxtail (Setaria viridis, SETVI); test: as above; conditions: POST emergent, 14 days after application, scale 0-100
In short: as §1

[5] = system: ivyleaf morningglory (Ipomoea hederacea, IPOHE); test: as above; conditions: POST emergent, 14 days after application, scale 0-100
In short: as §1

[6] = system: johnsongrass (Sorghum halepense, SORHA); test: as above; conditions: POST emergent, 14 days after application, scale 0-100
In short: as §1

[7] = system: lambsquarters (Chenopodium album, CHEAL); test: as above; conditions: POST emergent, 14 days after application, scale 0-100
In short: as §1

[8] = system: large crabgrass (Digitaria sanguinalis, DIGSA); test: as above; conditions: POST emergent, 14 days after application, scale 0-100
In short: as §1

[9] = system: redroot pigweed (Amaranthus retrofiexus, AMARE); test: as above; conditions: POST emergent, 14 days after application
In short: as §1

[10] = system: sicklepod (Cassia obtusifolia, CASOB); test: as above; conditions: POST emergent, 14 days after application, scale 0-100
In short: as §1

[11] = system: velvetleaf (Abutilon theophrasti, ABUTH); test: as above; conditions: POST emergent, 14 days after application, scale 0-100
In short: as §1

[12] = system: field corn (Zea mays L., var. Dekalb 535, CORN); test: Greenhouse herbicide screen, post-emerge application, crop damage rating; conditions: POST emergent, 14 days after application, scale 0-100
In short: as §1

[13] = system: upland rice (Oryza sp., var.Cocodrie, RICE); test: as above; conditions: POST emergent, 14 days after application, scale 0-100
In short: as §1

[14] = system: barnyardgrass (Echinochloa crus-galli, ECHCG); test: Greenhouse herbicide screen, pre-emerge application, phytotoxicity rating; conditions: PRE emergent, 14 days after application, rating scale 0-100
In short: as §1

[15] = system: cocklebur (Xanthium strumarium, XANST); test: as above; conditions: PRE emergent, 14 days after application, rating scale 0-100
In short: as §1

[16] = system: common ragweed (Ambrosia artemisiifolia L., AMBEL); test: as above; conditions: PRE emergent, 14 days after application, rating scale 0-100
In short: as §1

[17] = system: green foxtail (Setaria viridis, SETVI); test: as above; conditions: PRE emergent, 14 days after application, rating scale 0-100
In short: as §1

[18] = system: ivyleaf morningglory (Ipomoea hederacea, IPOHE); test: as above; conditions: PRE emergent, 14 days after application, rating scale 0-100
In short: as §1

[19] = system: johnsongrass (Sorghum halepense, SORHA); test: as above; conditions: PRE emergent, 14 days after application, rating scale 0-100
In short: as §1

[20] = system: lambsquarters (Chenopodium album, CHEAL); test: as above; conditions: PRE emergent, 14 days after application, rating scale 0-100
In short: as §1

[21] = system: large crabgrass (Digitaria sanguinalis, DIGSA); test: as above; conditions: PRE emergent, 14 days after application, rating scale 0-100
In short: as §1

[22] = system: redroot pigweed (Amaranthus retrofiexus, AMARE); test: as above; conditions: PRE emergent, 14 days after application, rating scale 0-100
In short: as §1

[23] = system: sicklepod (Cassia obtusifolia, CASOB); test: as above; conditions: PRE emergent, 14 days after application, rating scale 0-100
In short: as §1

[24] = system: velvetleaf (Abutilon theophrasti, ABUTH); test: as above; conditions: PRE emergent, 14 days after application, rating scale 0-100
In short: as §1

[25] = system: field corn (Zea mays L., var. Dekalb 535, CORN); test: Greenhouse herbicide screen, pre-emerge application, crop damage rating; conditions: PRE emergent, 14 days after application, rating scale 0-100
In short: as §1

[26] = system: upland rice (Oryza sp., var.Cocodrie, RICE); test: as above; conditions: PRE emergent, 14 days after application, rating scale 0-100
In short: as §1

`Cn1c(C(F)(F)F)cc(=O)n(-c2cc(C(=O)NN(Cc3ccccc3)Cc3ccccc3)c(Cl)cc2F)c1=O` [Compound 1-29] was tested, and the “phytotoxicity rating ECHCO” value ([1]; 63 g ai/ha) was 55, the “phytotoxicity rating ECHCO” value ([1]; 250 g ai/ha) was 100 and the “phytotoxicity rating XANST” value ([2]; 63 g ai/ha) was 0. The “phytotoxicity rating XANST” value ([2]; 250 g ai/ha) was 90, the “phytotoxicity rating AMBEL” value ([3]; 63 g ai/ha) was 75 and the “phytotoxicity rating AMBEL” value ([3]; 250 g ai/ha) was 100. For the same compound, the “phytotoxicity rating SETVI” value ([4]; 63 g ai/ha) was 99, the “phytotoxicity rating SETVI” value ([4]; 250 g ai/ha) was 100 and the “phytotoxicity rating IPOHE” value ([5]; 63 g ai/ha) was 90. The “phytotoxicity rating IPOHE” value ([5]; 250 g ai/ha) was 100, the “phytotoxicity rating SORHA” value ([6]; 63 g ai/ha) was 99 and the “phytotoxicity rating SORHA” value ([6]; 250 g ai/ha) was 100. The “phytotoxicity rating CHEAL” value ([7]; 63 g ai/ha) was 100, the “phytotoxicity rating CHEAL” value ([7]; 250 g ai/ha) was 100 and the “phytotoxicity rating DIGSA” value ([8]; 63 g ai/ha) was 85. The “phytotoxicity rating DIGSA” value ([8]; 250 g ai/ha) was 100, the “phytotoxicity rating AMARE” value ([9]; 63 g ai/ha, scale 0-100 (0 no damage, 100 complete death)) was 100 and the “phytotoxicity rating AMARE” value ([9]; 250 g ai/ha, scale 0-100) was 100. For the same compound, the “phytotoxicity rating CASOB” value ([10]; 63 g ai/ha) was 50, the “phytotoxicity rating CASOB” value ([10]; 250 g ai/ha) was 100 and the “phytotoxicity rating ABUTH” value ([11]; 63 g ai/ha) was 100. The “phytotoxicity rating ABUTH” value ([11]; 250 g ai/ha) was 100, the “crop damage rating CORN” value ([12]; 63 g ai/ha) was 10 and the “crop damage rating CORN” value ([12]; 250 g ai/ha) was 50. The “crop damage rating RICE” value ([13]; 63 g ai/ha) was 0, the “crop damage rating RICE” value ([13]; 250 g ai/ha) was 10 and the “phytotoxicity rating ECHCG” value ([14]; 63 g ai/ha) was 55. For the same compound, the “phytotoxicity rating ECHCG” value ([14]; 250 g ai/ha) was 100, the “phytotoxicity rating XANST” value ([15]; 63 g ai/ha) was 0 and the “phytotoxicity rating XANST” value ([15]; 250 g ai/ha) was 90. The “phytotoxicity rating AMBEL” value ([16]; 63 g ai/ha) was 75, the “phytotoxicity rating AMBEL” value ([16]; 250 g ai/ha) was 100 and the “phytotoxicity rating SETVI” value ([17]; 63 g ai/ha) was 99. For the same compound, the “phytotoxicity rating SETVI” value ([17]; 250 g ai/ha) was 100, the “phytotoxicity rating IPOHE” value ([18]; 63 g ai/ha) was 90 and the “phytotoxicity rating IPOHE” value ([18]; 250 g ai/ha) was 100. For the same compound, the “phytotoxicity rating SORHA” value ([19]; 63 g ai/ha) was 99, the “phytotoxicity rating SORHA” value ([19]; 250 g ai/ha) was 100 and the “phytotoxicity rating CHEAL” value ([20]; 63 g ai/ha) was 100. For the same compound, the “phytotoxicity rating CHEAL” value ([20]; 250 g ai/ha) was 100, the “phytotoxicity rating DIGSA” value ([21]; 63 g ai/ha) was 85 and the “phytotoxicity rating DIGSA” value ([21]; 250 g ai/ha) was 100. For the same compound, the “phytotoxicity rating AMARE” value ([22]; 63 g ai/ha) was 100, the “phytotoxicity rating AMARE” value ([22]; 250 g ai/ha) was 100 and the “phytotoxicity rating CASOB” value ([23]; 63 g ai/ha) was 50. For the same compound, the “phytotoxicity rating CASOB” value ([23]; 250 g ai/ha) was 100, the “phytotoxicity rating ABUTH” value ([24]; 63 g ai/ha) was 100 and the “phytotoxicity rating ABUTH” value ([24]; 250 g ai/ha) was 100. For the same compound, the “crop damage rating CORN” value ([25]; 63 g ai/ha) was 10, the “crop damage rating CORN” value ([25]; 250 g ai/ha) was 50 and the “crop damage rating RICE” value ([26]; 63 g ai/ha) was 0. The “crop damage rating RICE” value ([26]; 250 g ai/ha) was 10.
